Assay results reported in patent US10619138B2, “Herbicide-resistant hydroxyphenylpyruvate dioxygenases” (BASF SE, priority 2013, dated 2020).

Experiments:
[1] = system: Belliella HPPD (SEQ ID NO: 12); experiment: In vitro HPPD activity assay, tolerance index; format: biochemical, Belliella baltica; details: normalized on Arabidopsis wild-type HPPD
Experimental: (§1) The activity assay for HPPD is based on the analysis of homogentisic acid by reversed phase HPLC.
(§2) The assay mixture can contain 150 mM potassium phosphate buffer pH 7.0, 50 mM L-ascorbic acid, 100 μM Catalase (Sigma-Aldrich), 1 μM FeSO4 and 0.2 units of purified HPPD enzyme in a total volume of 505 μl. 1 unit is defined as the amount of enzyme that is required to produce 1 nmol of HGA per minute at 20° C.
(§3) The reaction is allowed to proceed for 45 min at room temperature. The reaction is stopped by the addition of 50 μl of 4.5 M phosphoric acid. The sample is filtered using a […] pore size PVDF filtration device.
(§4) 5 μl of the cleared sample is analyzed on an UPLC HSS T3 column (particle size 1.8 μm, dimensions 2.1×50 mm; Waters) by isocratic elution using 90% 20 mM NaH2PO4 pH 2.2, 10% methanol (v/v).
(§5) HGA is detected electrochemically at 750 mV (mode: DC; polarity: positive) and quantified by integrating peak areas (Empower software; Waters).
(§6) Inhibitors are dissolved in DMSO (dimethylsulfoxide) to a concentration of 0.5 mM. From this stock solution serial five-fold dilutions are prepared in DMSO, which are used in the assay. The respective inhibitor solution accounts for 1% of the assay volume. Thus, final inhibitor concentrations range from 5 μM to 320 pM, respectively. Activities are normalized by setting the uninhibited enzyme activity to 100%. IC50 values are calculated using non-linear regression.
(§7) Using methods which are described in the above examples or well known in the art, purified, recombinant wildtype HPPD enzymes are characterized with respect to their kinetic properties and sensitivity towards HPPD inhibiting herbicides. Apparent michaelis constants (Km) and maximal reaction velocities (Vmax) are calculated by non-linear regression with the software GraphPad Prism 5 (GraphPad Software, La Jolla, USA) using a substrate inhibition model. […] Weighted means (by standard error) of Km and IC50 values are calculated from at least three independent experiments. The Cheng-Prusoff equation for competitive inhibition (Cheng, Y. C.; Prusoff, W. H. Biochem Pharmacol 1973, 22, 3099-3108) is used to calculate dissociation constants (Ki).
(§8) Field performance of the HPPD enzyme, which is used as a herbicide tolerance trait may depend not only on its lack of sensitivity towards HPPD inhibiting herbicides but also on its activity. To assess the potential performance of a herbicide tolerance trait a tolerance index (TI) is calculated using the following formula: […]
(§9) Easy comparison and ranking of each trait is enabled by normalizing tolerance indexes on Arabidopsis wild-type HPPD.

[2] = system: Geodermatophilus HPPD (SEQ ID NO: 32); experiment: In vitro HPPD activity assay, tolerance index; format: biochemical, Geodermatophilus obscurus; details: normalized on Arabidopsis wild-type HPPD
Experimental: as §1, §2, §3, §4, §5, §6, §7, §8, §9

[3] = system: Herpetosiphon HPPD (SEQ ID NO: 26); experiment: In vitro HPPD activity assay, tolerance index; format: biochemical, Herpetosiphon aurantiacus; details: normalized on Arabidopsis wild-type HPPD
Experimental: as §1, §2, §3, §4, §5, §6, §7, §8, §9

[4] = system: Nitritalea HPPD (SEQ ID NO: 14); experiment: In vitro HPPD activity assay, tolerance index; format: biochemical, Nitritalea halalkaliphila; details: normalized on Arabidopsis wild-type HPPD
Experimental: as §1, §2, §3, §4, §5, §6, §7, §8, §9

[5] = system: Scenedesmus HPPD (SEQ ID NO: 4); experiment: In vitro HPPD activity assay, tolerance index; format: biochemical, Scenedesmus obliquus; details: normalized on Arabidopsis wild-type HPPD
Experimental: as §1, §2, §3, §4, §5, §6, §7, §8, §9

[6] = system: transgenic Arabidopsis plants expressing Scenedesmus HPPD; experiment: Greenhouse herbicide spray test, transgenic plants (T2); format: in vivo, Arabidopsis thaliana; details: for Injury evaluation, scale 0-100% / tolerance of transgenic plants (in words): two weeks after treatment; for tolerance of transgenic plants (in words): doses 1.56-50 g/ha
Source text: Additionally, T1 and T2 transgenic Arabidopsis plants can be tested for improved tolerance to HPPD-inhibiting herbicides in greenhouse studies. Herbicide injury scoring is done 2-3 weeks after treatment and is rated on a scale of 0 to 100%, 0% being no injury and 100% being complete death.
Transgenic Arabidopsis plants were sprayed with a range of doses from 1.56-50 g/ha with HPPD-inhibiting herbicides and injury evaluations were taken two weeks after treatment. […] As depicted in Table 6, control plants are severely injured by all doses of herbicide applied, with at least 70% of leaf material being damaged at the lowest application rate. For example, transgenic plants expressing Scenedesmus HPPD have an excellent tolerance to all herbidcides tested. […] After application of Inhibitor 2, only 18% of leaf material was damaged resulting in a 5-fold tolerance compared to the WT at the highest application rate.

[7] = system: Algoriphagus HPPD (SEQ ID NO: 22); experiment: In vitro HPPD activity assay, tolerance index; format: biochemical, Algoriphagus machipongonensis; details: normalized on Arabidopsis wild-type HPPD
Experimental: as §1, §2, §3, §4, §5, §6, §7, §8, §9

[8] = Scenedesmus HPPD Event 1, 3.125 g/ha
[9] = Scenedesmus HPPD Event 1, 6.25 g/ha
[10] = Scenedesmus HPPD Event 2, 3.125 g/ha
[11] = Scenedesmus HPPD Event 2, 6.25 g/ha
[12] = Scenedesmus HPPD Event 1, 12.5 g/ha
[13] = Scenedesmus HPPD Event 2, 12.5 g/ha

Compound | TI (normalized tolerance index) [1] | TI (normalized tolerance index) [2] | TI (normalized tolerance index) [3] | TI (normalized tolerance index) [4] | TI (normalized tolerance index) [5] | Injury evaluation, scale 0-100% ([6]; Scenedesmus HPPD Event 1, 1.56 g/ha) [%] | Injury evaluation, scale 0-100% [6, 8] [%] | Injury evaluation, scale 0-100% [6, 9] [%] | Injury evaluation, scale 0-100% ([6]; Scenedesmus HPPD Event 2, 1.56 g/ha) [%] | Injury evaluation, scale 0-100% [6, 10] [%] | Injury evaluation, scale 0-100% [6, 11] [%] | tolerance compared to the WT ([6]; at the highest application rate) [fold] | tolerance of transgenic plants (in words) [6] | TI (normalized tolerance index) [7] | Injury evaluation, scale 0-100% [6, 12] [%] | Injury evaluation, scale 0-100% ([6]; Scenedesmus HPPD Event 1, 25 g/ha) [%] | Injury evaluation, scale 0-100% ([6]; Scenedesmus HPPD Event 1, 50 g/ha) [%] | Injury evaluation, scale 0-100% [6, 13] [%] | Injury evaluation, scale 0-100% ([6]; Scenedesmus HPPD Event 2, 25 g/ha) [%] | Injury evaluation, scale 0-100% ([6]; Scenedesmus HPPD Event 2, 50 g/ha) [%]
CS(=O)(=O)c1ccc(C(=O)C2C(=O)CCCC2=O)c([N+](=O)[O-])c1 [Inhibitor 2, 2-(4-methylsulfonyl-2-nitro-benzoyl)cyclohexane-1,3-dione] | 0.1 | 0.7 | 0.4 | 0 | 0.1 | 10 | 13 | 18 | 23 | 38 | 38 | 5 | outstanding tolerance | – | – | – | – | – | – | –
CN(c1c(Cl)ccc(C2=C(O)c3ncccc3C(C)(C)S2(=O)=O)c1Cl)S(C)(=O)=O [Inhibitor 4, N-[2,6-dichloro-3-(8-hydroxy-5,5-dimethyl-6,6-dioxo-thiopyrano[4,3-b]pyridin-7-yl)phenyl]-N-methyl-methanesulfonamide] | – | – | – | – | – | – | – | – | – | – | – | – | outstanding tolerance | 132.5 | 13 | 18 | 65 | 20 | 25 | 25
CSc1c(Cl)cc(F)c(C(=O)Nc2nnnn2C)c1Cl [Inhibitor 11, 2,4-dichloro-6-fluoro-3-methylsulfanyl-N-(1-methyltetrazol-5-yl)benzamide] | 0 | 0.2 | 0.2 | 0 | 0.3 | – | 13 | 15 | – | 13 | 13 | – | outstanding tolerance | – | 33 | – | – | 15 | – | –
